This is an account of results in patent publication US9739734B2, “Methods and systems of detecting exocytosis of a target molecule from a population of cells” (THE MARINE […], priority 2013, dated 2017).

The test system of this experiment is pancreatic islet. Description: Impedance analysis of a pancreatic islet for insulin exocytosis (single frequency, real-time). Type of experiment: cell-based. From the text: In one embodiment, the method can be used to measure exocytosis of a molecule from an islet of cells. […] In one embodiment, islets can be modeled by 4 passive elements as in the equivalent electric circuit, where RMEM and CMEM represent the sum of the plasma membrane (MEM) resistances (R) and capacitances (C), and RCYT and RINT represent the sum of cytosolic (CYT) and intercellular space (INT) resistances, for all cells in the islet, respectively (FIG. 1B). AC currents applied across a whole islet result in voltage drops across these 4 elements, which are dependent, in part, on the AC frequency and the impedance (Z) of these elements (V=I(ZR(MEM+CYT+INT)+ZC(MEM)). ZC(MEM) and ZR(MEM) are generally sensitive to the level of an applied secretagogue (e.g., glucose), which at stimulatory levels decrease the RMEM, via opening of ion channels, and increase CMEM, via surface area increase reflective of exocytosis. Separation of the measured AC voltage into real (in phase with current) and imaginary (out of phase with current) components for 2 different frequencies can provide direct determination of RMEM, CMEM, RCYT and RINT through generation of 4 separate equations.
In order to optimize the resolution for monitoring changes in CMEM, an appropriate AC current can be applied at selected frequencies where the measured voltage drop across CMEM is readily detectable (e.g., where the measured voltage drop cross CMEM changes the most) during exocytosis. […] CIP can provide visualization of the changes in plasma membrane capacitance (PMc) over the range of applied frequencies, and thus the frequencies (e.g., 2 frequencies) at which the largest changes (e.g., the two largest changes) in plasma membrane capacitance can be determined as optimal AC frequencies.
The two optimal AC frequencies are then applied simultaneously to islets, e.g., according to the block diagram in FIG. 2. […] The computer can be used to compute, track and store the values of the passive elements of the equivalent circuit corresponding to the islet being measured. […]

`[Cl-].[K+]` [KCl, potassium chloride]: the “exocytosis of insulin from cells in the islet (shift in complex impedance plot)” value (25 mM KCl, before vs after addition, one frequency, FIG. 3) was “substantial exocytosis of insulin”. Besides, the “change in whole islet capacitance (imaginary component of impedance)” value (KCl final concentration 25 mM, single frequency ~1250 Hz, time series, FIG. 4B) was “immediate change in whole islet capacitance”. Besides, under “KCl final concentration 25 mM, single frequency, time series, FIG. 4A”, the “change in whole islet resistance (real component of impedance)” value is “not whole islet resistance”.
